Test results reported in publication PMC10420992, “Phosphodiesterase 5 and Arginase Inhibitory Activities of the Extracts from Some Members of Nelumbonaceae and Nymphaeaceae Families” (Molecules, 2023).

How the values were obtained:
[1] = biological target: T1, PDE5 (PDE5A1) (Homo sapiens, UniProt O76074); assay: Phosphodiesterase 5 inhibition assay (two-step radioactive procedure, [3H]cGMP); type: biochemical; settings: for IC50: flavonoids, mean ± SD, triplicate
T1 construct: made in house; host or cells: HEK293 (transient transfection; supernatant of sonicated homogenate)

[2] = tested on: rabbit corpus cavernosum tissues; set-up: method as in PMID 17968465; settings: rabbit tissue; cited from earlier work
[3] = tested on: PDE5 enzymes isolated from the mice lungs; set-up: method as in PMID 25920267; settings: cited from earlier work
[4] = biological target: PDE5 enzymes isolated from the lungs and hearts of male guinea pigs; settings: cited from earlier work

| Structure (SMILES) | PDE5 IC50 level (in words) [1] | IC50 [1] [µM] | Relaxant effect on corpus cavernosum tissues [2] | PDE5 inhibitory activity of 3 relative to 1, 2 and 4 ([1]; times stronger than 1, 2, and 4) | PDE5 inhibition (in words) [3] | IC50 [4] [µM] |
| --- | --- | --- | --- | --- | --- | --- |
| COc1c(-c2ccc(O)cc2)oc2cc(O)cc(O)c2c1=O [Compound 6, 3-O-methylkaempferol] | micromolar level | 4.41 ± 0.46 | – | – | – | – |
| COc1ccc(C[C@@H]2c3cc(Oc4cc(C[C@@H]5c6cc(OC)c(OC)cc6CCN5C)ccc4O)c(OC)cc3CCN2C)cc1 [Neferine] | – | – | relaxant effect | – | – | – |
| O=c1c(O)c(-c2ccc(O)c(O)c2)oc2cc(O)cc(O)c12 [Compound 3, quercetin] | micromolar level | 0.61 ± 0.11 | – | 7–9 times | inhibit PDE5 enzymes | – |
| O=c1c(O)c(-c2ccc(O)c(O[C@@H]3OC[C@@H](O)[C@H](O)[C@H]3O)c2)oc2cc(O)cc(O)c12 [Compound 1, quercetin 3’-O-β-xylopyranoside] | micromolar level | 4.09 ± 0.76 | – | – | – | – |
| COc1c(-c2ccc(O)c(O)c2)oc2cc(O)cc(O)c2c1=O [Compound 4, 3-O-methylquercetin] | micromolar level | 5.74 ± 2.11 | – | – | – | 86.9 |
| COc1c(-c2ccc(O)c(OC3OCC(O)C(O)C3O)c2)oc2cc(O)cc(O)c2c1=O (stereo not drawn) [Compound 2, quercetin 3-methyl ether 3’-O-β-xylopyranoside] | micromolar level | 5.63 ± 0.2 | – | – | – | – |
| O=c1c(O)c(-c2ccc(O)cc2)oc2cc(O)cc(O)c12 [Compound 5, kaempferol] | – | – | – | – | inhibit PDE5 enzymes | – |
